Settings: 263.41 K, Fluid (supercritical or subcritical phases), Vibrating tube method

FC(F)=C(F)C(F)(F)F [hexafluoropropene]
Settings | mass density [kg/m3]
70.5 kPa | 4.89
71.3 kPa | 4.97
72.5 kPa | 5.04
73.9 kPa | 5.17
75.2 kPa | 5.2
76.4 kPa | 5.28
77.7 kPa | 5.44
79 kPa | 5.49
80.3 kPa | 5.61
81.6 kPa | 5.72
82.7 kPa | 5.81
83.5 kPa | 5.85
84.7 kPa | 5.95
86 kPa | 6
87.2 kPa | 6.11
88.4 kPa | 6.26
89.8 kPa | 6.31
91 kPa | 6.41
92.3 kPa | 6.52
93.5 kPa | 6.56
94.6 kPa | 6.62
96 kPa | 6.75
97.3 kPa | 6.84
98.5 kPa | 6.94
99.7 kPa | 7.02
100.4 kPa | 7.07
101.6 kPa | 7.14
102.8 kPa | 7.21
104.5 kPa | 7.41
105.8 kPa | 7.51
107 kPa | 7.55
108.2 kPa | 7.68
109.5 kPa | 7.75
110.7 kPa | 7.85
112.4 kPa | 7.99
114.2 kPa | 8.06
115.5 kPa | 8.22
116.7 kPa | 8.3
117.9 kPa | 8.33
119.6 kPa | 8.49
120.8 kPa | 8.59
122 kPa | 8.7
123.2 kPa | 8.78
124.4 kPa | 8.88
126 kPa | 8.99
127.2 kPa | 9.05
128.4 kPa | 9.16
130.2 kPa | 9.28
131.8 kPa | 9.44
133 kPa | 9.5
134.7 kPa | 9.61
136.4 kPa | 9.79
138.1 kPa | 9.87
139.8 kPa | 10.02
141.5 kPa | 10.14
143.2 kPa | 10.31
144.8 kPa | 10.44
146.5 kPa | 10.54
148.1 kPa | 10.66
149.8 kPa | 10.8
151.4 kPa | 10.89
153 kPa | 11.03
154.7 kPa | 11.17
156.3 kPa | 11.29
157.9 kPa | 11.41
159.6 kPa | 11.53
161.2 kPa | 11.7

Source: the NIST ThermoML archive (doi:10.1021/je900596d)
